Results from patent US20050159481A1, “Medicinal composition for improving angiotension-regulating function of blood vessel endothelium” (CHUGAI SEIYAKU KABUSHIKI KAISHA, priority 2002, published 2005).

Test system: rat mesenteric artery sections damaged by oxidized LDL
Assay: Vascular endothelium-dependent relaxation response to acetylcholine in rat vessel cross-sections damaged by oxidized LDL
Type: cell-based
Conditions: for ACh concentration at which the relaxation degree of 50% was achieved: 30 min perfusion, then oxidized LDL 100 μg/mL for 60 min, sections contracted with 5 μM phenylephrine
Experimental: The ability of a compound of the present invention to ameliorate the vascular tone-regulating function of vascular endothelium was evaluated by assaying vascular endothelium-dependent relaxation response to acetylcholine in the presence of a compound of the present invention using cross-section samples of rat vessels damaged by oxidized low-density lipoprotein (oxidized LDL).
Oxidized LDL is a substance derived from an endogenous low-density lipoprotein (LDL) via a exposure to a oxidative stress, and has been reported to be involved in the mechanism by which vascular endothelial cells are damaged (Tanner F C, Noll G, Boulanger C M, Luscher T F, Oxidized low density lipoproteins inhibit relaxations of porcine coronary arteries. Role of scavenger receptor and endothelium-derived nitric oxide. Circulation. 1991, 83:2012-20). The oxidized LDL used in this test was prepared by incubating rabbit LDL suspended at 200 μg/mL in phosphate buffered physiological saline (PBS) prepared by the method of Havel et al. (Havel R. J. et al., J. Clin. Invest., 34, 1345 (1955)) with 5 μM CuSO4 at 37° C. for 24 hours.
First, the mesenteric artery was collected from a rat euthanized by carbon dioxide inhalation into Krebs buffer (containing 118.0 mM NaCl, 4.7 mM KCl, 25.0 mM NaCO3, […] CaCl, 1.5 mM MgSO4 and 10 mM glucose), and the artery was cut into 2 mm wide annular cross sections. Then, the sections were suspended in a Magnus bath where they were equilibrated under a tension of 3 mN for 60 minutes. After equilibration, the sections were contracted with a 5 μM phenylephrine solution in Krebs buffer.
After confirming that a stable contraction was achieved, the perfusion solution was replaced with Krebs buffer containing 20 μM each of test compounds. The test compounds were the compound of the present invention, 4,6-di-t-butyl-5-hydroxy-2,2-di-n-pentyl-2,3-dihydrobenzofuran, and comparative compounds, probucol and α-tocopherol. Probucol is a compound reported to ameliorate the vascular tone-regulating function of vascular endothelium by preventing the decrease of the EDRF-secreting ability of vascular endothelial cells. α-tocopherol is a fat-soluble endogenous antioxidant known to inhibit the oxidation of LDL.
After perfusion for 30 minutes, oxidized LDL was added to a concentration of 100 μg/mL. After equilibration in the perfusion solution containing oxidized LDL for 60 minutes, acetylcholine (ACh) was cumulatively added at concentrations from 1×10^−10 M to 1×10^−5 M. At equally spaced ACh concentrations, the length of each section was measured to calculate the degree of relaxation (%) by dividing the difference between the lengths of the section before and after relaxation by the length before relaxation. This relaxation is a phenomenon resulting from the acetylcholine-induced secretion of EDRF from vascular endothelial cells.
In addition to the experiment described above, a similar experiment was performed except that the perfusion in Krebs buffer containing test compounds and the equilibration with oxidized LDL were omitted (control experiment) or except that the perfusion in Krebs buffer containing test compounds was omitted but the equilibration with oxidized LDL was included (oxidized LDL experiment).
The procedure of test example 1 was followed except that the concentration of the test compound was increased from 20 μM to 50 μM.

[1] = 20 μM test compound, compared with the oxidized LDL experiment, FIG. 1

SMILES | ACh concentration at which the relaxation degree of 50% was achieved (20 μM test compound, FIG. 1) [nM] | Ameliorating effect on the vascular tone-regulating function of vascular endothelium damaged by oxidized LDL [1] | Ameliorating effect on the vascular tone-regulating function of vascular endothelium damaged by oxidized LDL (50 μM test compound, compared with the control, FIG. 2)
CC(C)(Sc1cc(C(C)(C)C)c(O)c(C(C)(C)C)c1)Sc1cc(C(C)(C)C)c(O)c(C(C)(C)C)c1 [probucol] | 121 | – | –
Cc1c(C)c2c(c(C)c1O)CC[C@@](C)(CCC[C@H](C)CCC[C@H](C)CCCC(C)C)O2 [α-tocopherol] | 261 | does not ameliorate the vascular tone-regulating function of vascular endothelium | –
CCCCCC1(CCCCC)Cc2c(cc(C(C)(C)C)c(O)c2C(C)(C)C)O1 [compound of the present invention, 4,6-di-t-butyl-5-hydroxy-2,2-di-n-pentyl-2,3-dihydrobenzofuran] | 126 | ameliorated the vascular tone-regulating function of vascular endothelium | adverse influence of oxidized LDL-induced damages to vascular endothelial cells on the vascular tone-regulating function was completely removed
